The source of these data is paper PMC12695923, “The role of N185D substitution in enhancing activity of BaqA∆C α-amylase” (Scientific Reports, 2025).

Structures are written as SMILES.

For the test, the target named is T1, BaqAΔC (Rossellomorea aquimaris, UniProt G8IJA7).
T1 construct: gene baqA
T1 sequence (G8IJA7 24-478): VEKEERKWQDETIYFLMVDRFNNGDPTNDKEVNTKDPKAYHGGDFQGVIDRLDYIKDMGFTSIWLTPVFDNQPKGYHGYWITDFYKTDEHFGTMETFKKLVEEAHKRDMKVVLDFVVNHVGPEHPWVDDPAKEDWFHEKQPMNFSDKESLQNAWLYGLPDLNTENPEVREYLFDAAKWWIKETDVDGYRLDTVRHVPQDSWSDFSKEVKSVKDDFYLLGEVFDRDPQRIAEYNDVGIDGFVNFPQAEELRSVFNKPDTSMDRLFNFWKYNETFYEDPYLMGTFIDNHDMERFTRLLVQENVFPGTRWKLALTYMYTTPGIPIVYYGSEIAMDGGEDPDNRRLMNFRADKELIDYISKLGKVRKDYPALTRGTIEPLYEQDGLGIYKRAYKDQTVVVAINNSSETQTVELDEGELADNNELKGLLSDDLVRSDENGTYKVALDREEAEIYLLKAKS
As to the kind of experiment: intrinsic fluorescence quenching, modified Stern-Volmer plot. As to conditions: 50 mM HEPES pH 8; 15 min at 50 °C, spectra at 25 °C; n = 1.3; acarbose 15-75 mM. It counts as binding.

`C[C@H]1O[C@H](O[C@H]2[C@H](O)[C@@H](O)[C@@H](O[C@H]3[C@H](O)[C@@H](O)C(O)O[C@@H]3CO)O[C@@H]2CO)[C@H](O)[C@@H](O)[C@@H]1N[C@H]1C=C(CO)[C@@H](O)[C@H](O)[C@H]1O` (stereo partly shown) [acarbose] had a Ka of 0.032 mL/mg.
